Measured values published in patent publication US5965720A, “Oligonucleotide N3'→P5' phosphoramidates” (Lynx Therapeutics, Inc., priority 1997, dated 1999).
Entries after “also recorded” stand apart in the source; their conditions may differ. [np] = N3'→P5' phosphoramidate

Experiments:
BV173 cells = assay: Leukemic cell proliferation, BV173 cells (B2A2 BCR/ABL fusion junction); conditions: for shape of inhibition curves at later time points after partial release of inhibition: FIGS. 14 and 18; for inhibition of BV173 leukemia cell growth relative to phosphoramidate oligonucleotide 6: comparable concentrations
[1] = tested on: dA10:dT10 duplex region of the hairpin DNA target d(A10 C4 T10); assay: Triplex melting with hairpin DNA target d(A10 C4 T10); assay type: binding
Protocol: Melting curves were obtained for triplexes formed by the decathymidilic phosphoramidate […] and the dA10 :dT10 duplex region of the hairpin DNA target d(A10 C4 T10) (FIG. 3, experiment 7).
(§1) Triplex thermal stabilities were evaluated essentially as described above for duplexes.
FIGS. 7A to 7D present exemplary triplex melting curves. FIGS. 7A and 7C present normalized absorbance at 260 nm plotted against temperature. FIGS. 7B and 7D present normalized absorbance at 284 nm plotted against temperature. In the figures: the triplexes formed by double stranded DNA and phosphoramidate Oligonucleotide 3 correspond to the black circle line; triplexes formed with phosphodiester Oligonucleotide 1 correspond to open squares line).
The data correspond to FIG. 3, experiment 7 where curves (A) and (C) were thermal stability studies performed using buffers A and B, respectively, with hyperchromicity monitored at 260 nm. Curves (B) and (D) are (A) and (C) respectively, but where hyperchromicity was monitored at 284 nm.

K562 cells = assay: Leukemic cell proliferation / cytotoxicity, K562 cells (B3A2 BCR/ABL fusion junction); assay type: cell-based; conditions: FIG. 15
Protocol: (§2) N3'→P5' phosphoramidate linkage containing anti-sense oligonucleotides were synthesized which were complementary to the BCR/ABL fusion junction (B2A2) in leukemic cell line BV173. The following assay measures leukemic cell proliferation and is performed essentially as described by Anfossi, et al. (1989).
(§3) Briefly, FIG. 10 illustrates the effect of BCR-ABL oligomers on leukemic cell proliferation of BV173 cells carrying the B2A2-type break points. BV173 is a leukemic cell line with the B2A2 BCR/ABL fusion junction (Pegoraro, et al., 1983). HL60 is a promyelocytic leukemic cell line with a normal c-abl locus (Collins, et al., 1977). K562 is a leukemic cell line with the B3A2 BCR/ABL fusion junction (Seelig, et al., 1993).
(§4) Cells (5×10^4) were placed in 0.2 ml of liquid suspension culture (Iscove's modified Dulbecco's modified medium with 2% human AB serum--Life Technologies, Gaithersburg, Md.).
(§5) The oligonucleotides were administered to the cultures at 24 hour intervals for three days (days 0, 1 and 2) to achieve the incremental concentrations shown in the legends of FIGS. 10-19 (all concentrations in μg/mL), for example, FIG. 10--40/20/20; 20/10/10; 10/5/5; and 5/2.5/2.5. Note that, for example, 40/20/20 reflects a final total concentration of 80 μg/ml in the cell culture medium after the last oligonucleotide addition. Cell counts were performed by standard methods.

complementary DNA strand = assay: Thermal dissociation of duplexes with complementary DNA strand; assay type: binding
Protocol: (§6) The hybridization properties of the phosphoramidate analogs were evaluated relative to complementary DNA or RNA strands having standard phosphodiester intersubunit linkages. The thermal stability data for duplexes generated from phosphoramidate analogs and phosphodiester oligomers are summarized in FIG. 3 (Example 1).
(§7) The same trend is true for the mixed-base undecanucleotide 6 (FIG. 3), where the Tm 's of duplexes with complementary DNA and RNA strands were 49.2° C. and 72.4° C., respectively, (FIG. 3, experiments 13, 14).
Thermal dissociation curves were obtained using a Carry IE spectrophotometer (Varian, Palo Alto, Calif.) that was equipped with a temperature controller (Varian). […]
(§8) The molar extinction coefficients used for oligo(dT), poly(dA) and poly(A) were 8.2, 8.4, and 10.2 A260 ×10^3, respectively. An extinction coefficient of 109 A260 Units/μM was used for the mixed-based oligomers--the extinction coefficient was calculated from the table compiled by P. N. Borer (1975).
Reaction solutions were equilibrated at 0° C. and the absorbance at 260 nm was followed as the temperature was increased in increments of 3° C. per 5 minutes. The fraction of an oligomer in the bound state, α,at a given temperature was determined by use of upper and lower base lines as described by Abergo, et al. (1981). […]

[2] = tested on: 26-mer hairpin target (SEQ ID NO:22); assay: Gel band mobility shift assay, 26-mer hairpin target; assay type: binding; conditions: native conditions, essentially as for Oligonucleotide 3
From the text: The conditions of the gel band mobility shift assay were essentially as described above.

HL60 cells = assay: Leukemic cell proliferation / cytotoxicity, HL60 cells (no BCR/ABL breakpoint); assay type: cell-based
Protocol: as §2, §3, §4, §5

complementary RNA strand = assay: Thermal dissociation of duplexes with complementary RNA strand; assay type: binding
Protocol: as §6, §7
Thermal dissociation curves were obtained using a Carry IE spectrophotometer (Varian, Palo Alto, Calif.) that was equipped with a temperature controller (Varian). The reaction solutions contained equivalent concentrations of oligomer and complement (approximately 6 μM in oligomer strand) in 15 mM phosphate buffer at pH 7.05, with NaCl added to give a total Na+ concentration of 100 mM.
as §8
Reaction solutions were equilibrated at 0° C. and the absorbance at 260 nm was followed as the temperature was increased in increments of 3° C. per 5 minutes. The fraction of an oligomer in the bound state, α,at a given temperature was determined by use of upper and lower base lines as described by Abergo, et al. (1981). Tm values are defined as the temperature at which α=0.5. Plots of Ink (Marky, et al., 1987) versus 1/T were linear for these compounds.
In the table, Tm is the temperature at the midpoint of the melting curve; np is the abbreviation for the 3'--NHP(O)(O^-)0-5' phosphoramidate link.
The concentrations of oligonucleotides were typically at 5 μM oligomer strands. Buffer A (10 mM Tris HCl, 150 mM NaCl, pH 7.02) was used for duplex thermal stability studies.

[3] = tested on: single mismatch RNA target; assay: Thermal dissociation of duplexes with single mismatch RNA target; assay type: binding; conditions: mismatch discrimination
Protocol: Hybridization of the phosphoramidate oligonucleotides with complementary nucleic acids is sequence specific and determined by the proper Watson-Crick base pairing.
Reaction solutions were equilibrated at 0° C. and the absorbance at 260 nm was followed as the temperature was increased in increments of 3° C. per 5 minutes. […] Tm values are defined as the temperature at which α=0.5.

[4] = Thermal dissociation of oligonucleotide hairpin duplexes; assay type: physicochemical
Protocol: Experiments were also performed to evaluate the stability of duplexes formed by oligonucleotides containing phosphoramidate linkages in both complementary strands.
The stability of duplexes formed by oligonucleotides containing phosphoramidate linkages in both complementary strands was evaluated essentially as described above.
All the molecules in FIG. 6 were constructed using 2'-deoxyribonucleotides.
as §1

[5] = tested on: 24-mer hairpin target d(A10 C4 T10); assay: Gel band mobility shift assay, 24-mer hairpin target; assay type: binding; conditions: native conditions, 10 mM MgCl2, 80 mM Tris-borate, pH 8.2, 10° C.
Protocol: Triplex structures were further evaluated using gel band mobility shift assays.
Gel band mobility shift assay conditions were as follows: 20% acrylamide, 5% bisacrylamide in 10 mM MgCl2, 80 mM Tris-borate buffer, pH 8.2, 10° C. Gels were typically run under native (non-denaturing) conditions. In the figure the lanes are as follows: 1--10-mer phosphodiester Oligonucleotide 1; 2--10-mer phosphoramidate Oligonucleotide 3; 3--24-mer hairpin target d(A10 C4 T10) (FIG. 3, experiment 7).
The gel was stained with STAINS-ALL™ (Kodak, Rochester N.Y.) and imaged on a Molecular Dynamics (Sunnyvale, Calif.) densitometer.

control cell lines = assay: Cytotoxicity of antisense oligonucleotides in leukemia cell culture; assay type: cell-based
From the text: FIGS. 10 through 19 show the results of anti-sense oligonucleotides, having either phosphoramidate (N3'→P5') (FIGS. 10-15) or phosphorothioate (FIGS. 16-19) intersubunit linkages, on leukemia cell proliferation for different BCR-ABL leukemia cell lines and control cell lines.
as §2, §4, §5

[6] = versus Oligodeoxyribonucleotide 4

16mer phosphorothioate oligonucleotide (SEQ ID NO:27): 16mer phosphorothioate complementary to the B3A2 BCR/ABL fusion junction; 2 base pair mismatch to B2A2 (antisense GAGTTCAAAAGCCCTT; all phosphorothioate, sugars by position and methylation of C not given here)
tolerance by BV173 cells (BV173 cells; all concentrations (FIG. 17)): tolerated by the cells

Oligonucleotide 6: fully modified N3'→P5' phosphoramidate 11-mer complementary to the BCR-ABL junction B2A2 (antisense CTTCTTCCTTA; all [np], sugars by position and methylation of C not given here)
Tm of triplex ([1]; close to physiological conditions (buffer A)): 32 °C
Tm of triplex ([1]; magnesium-containing buffer (buffer B)): 42.2 °C
effect on proliferation of K562 cells / cytotoxicity (K562 cells): essentially no effect on the proliferation
Tm of duplex with complementary DNA strand (complementary DNA strand; buffer A): 49.2 °C
Tm increase relative to parent phosphodiester Oligodeoxyribonucleotide 4, DNA strand (complementary DNA strand; [6]): 11.7 °C
triplex formation in gel band mobility shift assay [2]: stable triplex formation; also recorded: confirmed by gel band mobility shift assay
cytotoxicity to HL60 cells (HL60 cells): no apparent cytotoxicity; also recorded: negligible toxicity
tolerance by HL60 cells (HL60 cells; all concentrations (FIG. 11)): well tolerated by the cells
shape of inhibition curves at later time points after partial release of inhibition (BV173 cells): downward inflection at later time points
inhibition of BV173 leukemia cell proliferation (BV173 cells; all concentrations / FIG. 10 down to 5/2.5/2.5 μg/ml on days 0, 1, 2): extremely effective at inhibiting the growth of the leukemia cells
inhibition of BV173 leukemia cell proliferation (BV173 cells; lowest concentrations 0.3125/0.15625/0.15625 μg/mL (FIG. 12)): extremely effective at inhibiting leukemia cell proliferation
Tm of duplex with complementary RNA strand (complementary RNA strand; buffer A): 72.4 °C
Tm increase relative to parent phosphodiester Oligodeoxyribonucleotide 4, RNA strand (complementary RNA strand; [6]): 22.9 °C
duplex stability increase relative to homologous RNA oligomer 5, same RNA target (complementary RNA strand; versus RNA oligomer 5): 18.0 °C
ΔTm with single mismatch RNA target versus fully complementary [3]: -12.2 °C

d(A10 C4 T10) [hairpin duplex]
Tm of the hairpin duplex ([4]; buffer A): 55.7 °C
Tm of the hairpin duplex ([4]; buffer B (10 mM MgCl2)): 61.5 °C

phosphodiester decathymidilic acid [Oligonucleotide 1, reference compound]
triplex formation in gel band mobility shift assay [5]: no corresponding triplex was formed; also recorded: fails to form a triplex
triplex formation judged by melting curves ([1]; buffers A and B, 260 and 284 nm): no corresponding triplex was formed; also recorded: did not form triplexes

phosphorothioate 16-mer: oligonucleotide 16-mer having fully modified phosphorothioate intersubunit linkages, containing the SEQ ID NO:6 sequence (antisense AAGGGCTTCTTCCTTA; all phosphorothioate, sugars by position and methylation of C not given here)
cytotoxicity (control cell lines): absence of cytotoxicity
shape of inhibition curves at later time points after partial release of inhibition (BV173 cells): steep upward inflection at later time points
concentrations of release of inhibition relative to phosphoramidate oligonucleotide 6 (BV173 cells; FIGS. 18 and 19): much lower concentrations
inhibition of BV173 leukemia cell growth relative to phosphoramidate oligonucleotide 6 (BV173 cells): not effective at inhibiting BV173 leukemia cell proliferation
inhibition of BV173 leukemia cell growth relative to phosphoramidate oligonucleotide 6 (BV173 cells; listed as 16-mer (SEQ ID NO:26)): not as effective as oligonucleotide 6
